# Experimental data: patent US7897582B2, “Oligonucleotide compositions and methods for the modulation of the expression of B7 protein” (Isis Pharmaceuticals, Inc., priority 2003, dated 2011)
# Strand notation (5' to 3'): a small letter for the sugar, then the base; units joined by * are phosphorothioate-linked, units joined directly phosphodiester-linked; [ ] holds rarer units or linkages, { } end groups; capitals alone tell only the bases. e = 2'-O-(2-methoxyethyl) (MOE); [5mC] = 5-methylcytosine; d = 2'-deoxy (DNA)
# Tested on: Human B7-2 mRNA
# Assay: Human B7-2 mRNA expression in electroporated THP-1 cells induced with LPS and dibutyryl cAMP
# Format: cell-based
# Details: THP-1 cells electroporated at 10 micromolar oligonucleotide, LPS and dibutyryl cAMP (500 μM) 16 hours
# From the text: The human promonocytic leukaemia cell line, THP-1 (American Type Culture Collection, Manassas, Va.) was maintained in RPMI 1640 growth media supplemented with 10% fetal calf serum (FCS; Life Technologies, Rockville, Md.). A total of 1×10^7 cells were electroporated at an oligonucleotide concentration of 10 micromolar in 2 mm cuvettes, using an Electrocell Manipulator 600 instrument (Biotechnologies and Experimental Research, Inc.) employing 200 V, 1000 μF. Electroporated cells were then transferred to petri dishes and allowed to recover for 16 hrs Cells were then induced with LPS and dibutyryl cAMP (500 μM) for 16 hours. RNA was isolated and processed as described in previous examples.
Substance,% mRNA EXPRESSION,% mRNA INHIBITION
113131 (antisense e[5mC]*eG*eT*eG*eT*dG*dT*d[5mC]*dT*dG*dT*dG*d[5mC]*dT*dA*eG*eT*e[5mC]*e[5mC]*e[5mC]) [compound 113131],13%,87%
113132 (antisense eG*e[5mC]*eT*eG*e[5mC]*dT*dT*d[5mC]*dT*dG*d[5mC]*dT*dG*dT*dG*eA*e[5mC]*e[5mC]*eT*eA) [compound 113132],17%,83%
113133 (antisense eT*eA*eT*eT*eT*dG*d[5mC]*dG*dA*dG*d[5mC]*dT*d[5mC]*d[5mC]*d[5mC]*e[5mC]*eG*eT*eA*e[5mC]) [compound 113133],214%,
113134 (antisense eG*e[5mC]*eA*eT*eA*dA*dG*d[5mC]*dA*d[5mC]*dA*dG*d[5mC]*dA*dG*e[5mC]*eA*eT*eT*e[5mC]) [compound 113134],27%,73%
113135 (antisense eT*e[5mC]*e[5mC]*eA*eA*dA*dA*dA*dG*dA*dG*dA*d[5mC]*d[5mC]*dA*eG*eA*eT*eG*e[5mC]) [compound 113135],66%,34%
113136 (antisense eA*eA*eA*eT*eG*d[5mC]*d[5mC]*dT*dG*dT*d[5mC]*d[5mC]*dA*d[5mC]*dT*eG*eT*eA*eG*e[5mC]) [compound 113136],81%,19%
113137 (antisense e[5mC]*eT*eT*e[5mC]*eA*dG*dA*dG*dG*dA*dG*d[5mC]*dA*dG*d[5mC]*eA*e[5mC]*e[5mC]*eA*eG) [compound 113137],57%,43%
113138 (antisense eG*eA*eA*eT*e[5mC]*dT*dT*d[5mC]*dA*dG*dA*dG*dG*dA*dG*e[5mC]*eA*eG*e[5mC]*eA) [compound 113138],12%,88%
113140 (antisense eG*e[5mC]*eT*eT*eT*dG*dG*dT*dT*dT*dT*dG*dA*dG*dA*eG*eT*eT*eT*eG) [compound 113140],214%,
113141 (antisense eA*eG*eG*e[5mC]*eT*dT*dT*dG*dG*dT*dT*dT*dT*dG*dA*eG*eA*eG*eT*eT) [compound 113141],126%,
113142 (antisense eG*e[5mC]*eT*e[5mC]*eA*d[5mC]*dT*d[5mC]*dA*dG*dG*d[5mC]*dT*dT*dT*eG*eG*eT*eT*eT) [compound 113142],35%,65%
113143 (antisense eG*eG*eT*e[5mC]*e[5mC]*dT*dG*d[5mC]*d[5mC]*dA*dA*dA*dA*dT*dA*e[5mC]*eT*eA*e[5mC]*eT) [compound 113143],118%,
113144 (antisense eA*eG*e[5mC]*e[5mC]*e[5mC]*dT*dT*dG*dT*d[5mC]*d[5mC]*dT*dT*dG*dA*eT*e[5mC]*eT*eG*eA) [compound 113144],41%,59%
113145 (antisense eT*eG*eT*eG*eG*dG*d[5mC]*dT*dT*dT*dT*dT*dG*dT*dG*eA*eT*eG*eG*eA) [compound 113145],46%,54%
113146 (antisense eA*eA*eT*e[5mC]*eA*dT*dT*d[5mC]*d[5mC]*dT*dG*dT*dG*dG*dG*e[5mC]*eT*eT*eT*eT) [compound 113146],32%,68%
113147 (antisense e[5mC]*e[5mC]*eG*eT*eG*dT*dA*dT*dA*dG*dA*dT*dG*dA*dG*e[5mC]*eA*eG*eG*eT) [compound 113147],35%,65%
113148 (antisense eA*e[5mC]*e[5mC]*eG*eT*dG*dT*dA*dT*dA*dG*dA*dT*dG*dA*eG*e[5mC]*eA*eG*eG) [compound 113148],23%,77%
113149 (antisense eT*e[5mC]*eA*eT*e[5mC]*dT*dT*d[5mC]*dT*dT*dA*dG*dG*dT*dT*e[5mC]*eT*eG*eG*eG) [compound 113149],29%,71%
113150 (antisense eA*e[5mC]*eA*eA*eG*d[5mC]*dT*dG*dA*dT*dG*dG*dA*dA*dA*e[5mC]*eG*eT*e[5mC]*eG) [compound 113150],19%,81%
113151 (antisense eT*eG*e[5mC]*eT*e[5mC]*dG*dT*dA*dA*d[5mC]*dA*dT*d[5mC]*dA*dG*eG*eG*eA*eA*eT) [compound 113151],208%,
113152 (antisense eA*eA*eG*eA*eT*dG*dG*dT*d[5mC]*dA*dT*dA*dT*dT*dG*e[5mC]*eT*e[5mC]*eG*eT) [compound 113152],89%,11%
113153 (antisense e[5mC]*eG*e[5mC]*eG*eT*d[5mC]*dT*dT*dG*dT*d[5mC]*dA*dG*dT*dT*eT*e[5mC]*e[5mC]*eA*eG) [compound 113153],19%,81%
113154 (antisense e[5mC]*eA*eG*e[5mC]*eT*dG*dT*dA*dA*dT*d[5mC]*d[5mC]*dA*dA*dG*eG*eA*eA*eT*eG) [compound 113154],63%,37%
113155 (antisense eG*eG*eG*e[5mC]*eT*dT*d[5mC]*dA*dT*d[5mC]*dA*dG*dA*dT*d[5mC]*eT*eT*eT*e[5mC]*eA) [compound 113155],13%,87%
113156 (antisense e[5mC]*eA*eT*eG*eT*dA*dT*d[5mC]*dA*d[5mC]*dT*dT*dT*dT*dG*eT*e[5mC]*eG*e[5mC]*eA) [compound 113156],83%,17%

# Tested on: hB7-2 mRNA
# Assay: Ribonuclease protection assay of hB7-2 mRNA in transfected COS-7 cells
# Format: cell-based, human
# Set-up: % Control RNA Expression: concentration or dose not given beside the values
# Details: hB7-2 mRNA; Table 5
# Protocol: For ribonuclease protection assays, cells were harvested 18 hours after completion of oligonucleotide treatment using a Totally RNA™ kit (Ambion, Austin, Tex.). The probes for the assay were generated from plasmids pcB7-2 (linearized by digestion with Bgl II) and pTRI-b-actin (Ambion Inc., Austin, Tex.). In vitro transcription of the linearized plasmid from the SP6 promoter was performed in the presence of α-^32P-UTP (800 Ci/mmole) yielding an antisense RNA complementary to the 3′ end of B7-2 (position 1044-1391). The probe was gel-purified after treatment with DNase I to remove DNA template. Ribonuclease protection assays were carried out using an RPA II™ kit (Ambion) according to the manufacturer's directions. Total RNA (5 μg) was hybridized overnight, at 42° C., with 10^5 cpm of the B7-2 probe or a control beta-actin probe. The hybridization reaction was then treated, at 37° C. for 30 minutes, with 0.4 units of RNase A and 2 units of RNase T1. Protected RNA was precipitated, resuspended in 10 μL of gel loading buffer and electrophoresed on a 6% acrylamide gel with 50% w/v urea at 20 W. The gel was then exposed and the lanes quantitated using a PhosphorImager (Molecular Dynamics, Sunnyvale, Calif.) essentially according to the manufacturer's instructions.
# The oligonucleotides were screened as described in Example 4 except that the concentration of oligonucleotide was varied as shown in Table 13. Mismatch control oligonucleotides were included.
row,Substance,% Control RNA Expression
1,10370 (antisense dA*dA*dA*dA*dG*dG*dT*dT*dG*dC*dC*dC*dA*dG*dG*dA*dA*dC*dG*dG) [compound 10370],83.2%
2,10371 (antisense dG*dG*dG*dA*dG*dT*dC*dC*dT*dG*dG*dA*dG*dC*dC*dC*dC*dC*dT*dT) [compound 10371],92.9%
3,10372 (antisense dC*dC*dA*dT*dT*dA*dA*dG*dC*dT*dG*dG*dG*dC*dT*dT*dG*dG*dC*dC) [compound 10372],82.5%
4,10373 (antisense dT*dG*dC*dG*dA*dG*dC*dT*dC*dC*dC*dC*dG*dT*dA*dC*dC*dT*dC*dC) [compound 10373],32.7%

# Same assay, conditions: human B7-2 mRNA; Table 12
Substance,% mRNA EXPRESSION,% mRNA INHIBITION
10373 (antisense dT*dG*dC*dG*dA*dG*dC*dT*dC*dC*dC*dC*dG*dT*dA*dC*dC*dT*dC*dC) [compound 10373],24%,76%

# Tested on: human B7-2
# Assay: Cell surface expression of B7-2 in transfected COS-7 cells by flow cytometry
# Format: cell-based
# Set-up: % Control Protein: concentration or dose not given beside the values
# Details: hB7-2 protein, flow cytometry; Table 5
# Protocol: A T-175 flask was seeded at 75% confluency with COS-7 cells (ATCC accession No. CRL 1651). The plasmid pcB7-1 was introduced into cells by standard calcium phosphate transfection. Following a 4 hour transfection, the cells were trypsinized and seeded in 12-well dishes at 80% confluency. The cells were allowed to adhere to the plastic for 1 hour and were then washed with phosphate-buffered saline (PBS). OptiMEM™ (GIBCO-BRL, Gaithersburg, Md.) medium was added along with 15 μg/mL of Lipofectin™ (GIBCO-BRL, Gaithersburg, Md.) and oligonucleotide at the indicated concentrations. After four additional hours, the cells were washed with phosphate buffered saline (PBS) and incubated with fresh oligonucleotide at the same concentration in DMEM (Dulbecco et al., Virol., 1959, 8, 396; Smith et al., Virol., 1960, 12, 185) with 10% fetal calf sera (FCS).
# In order to monitor the effects of oligonucleotides on cell surface expression of B7-1, treated COS-7 cells were harvested by brief trypsinization 24-48 hours after oligonucleotide treatment. The cells were washed with PBS, then resuspended in 100 μL of staining buffer (PBS, 0.2% BSA, 0.1% azide) with 5 μL conjugated anti-B7-1-antibody (i.e., anti-hCD80-FITC, Ancell, Bayport, Minn.; FITC: fluorescein isothiocyanate). The cells were stained for 30 minutes at 4° C., washed with PBS, resuspended in 300 μL containing 0.5% paraformaldehyde. Cells were harvested and the fluorescence profiles were determined using a flow cytometer.
# In an initial screen, the ability of hB7-2 oligonucleotides to inhibit B7-2 expression was evaluated by measuring the cell surface expression of B7-2 in transfected COS-7 cells by flow cytometry. The methods used were similar to those given in Example 2, with the exceptions that (1) COS-7 cells were transfected with the plasmids pbcB7-2 or BBG-58, a human ICAM-1 (CD54) expression vector (R&D Systems, Minneapolis, Minn.) introduced into cells by standard calcium phosphate transfection, (2) the oligonucleotides used were those described in Table 2, and (3) a conjugated anti-B7-2 antibody (i.e., anti-hCD86-FITC or anti-CD86-PE, PharMingen, San Diego, Calif.; PE: phycoerythrin) was used during flow cytometry.
# B7 antisense oligonucleotides were tested for their effect on cell surface expression of both B7-1 and B7-2. Cell surface expression was measured as described in Example 1. Experiments were done for both human B7 and mouse B7.
# The oligonucleotides were screened as described in Example 2 except that the concentration of oligonucleotide was varied as shown in Table 19.
row,Substance,% Control Protein
1,10370 (antisense dA*dA*dA*dA*dG*dG*dT*dT*dG*dC*dC*dC*dA*dG*dG*dA*dA*dC*dG*dG) [compound 10370],84.3%
2,10371 (antisense dG*dG*dG*dA*dG*dT*dC*dC*dT*dG*dG*dA*dG*dC*dC*dC*dC*dC*dT*dT) [compound 10371],97.3%
3,10372 (antisense dC*dC*dA*dT*dT*dA*dA*dG*dC*dT*dG*dG*dG*dC*dT*dT*dG*dG*dC*dC) [compound 10372],101.7%
4,10373 (antisense dT*dG*dC*dG*dA*dG*dC*dT*dC*dC*dC*dC*dG*dT*dA*dC*dC*dT*dC*dC) [compound 10373],43.5%
